What was measured:
[1] = biological target: Cyclin-dependent kinase 7 (Homo sapiens) (UniProt P50613); assay: Inhibition of CDK7 labeling at conserved Lys2 (DLKPNNLLLDENGVLK) in human PBMC at 1 uM
[2] = biological target: T1, Mitogen-activated protein kinase kinase kinase 5 (Homo sapiens) (UniProt Q99683); assay: Inhibition of MAP3K5 conserved Lys2 (DIKGDNVLINTYSGVLK) in human PBMC at 1 uM
T1 sequence (whole entry): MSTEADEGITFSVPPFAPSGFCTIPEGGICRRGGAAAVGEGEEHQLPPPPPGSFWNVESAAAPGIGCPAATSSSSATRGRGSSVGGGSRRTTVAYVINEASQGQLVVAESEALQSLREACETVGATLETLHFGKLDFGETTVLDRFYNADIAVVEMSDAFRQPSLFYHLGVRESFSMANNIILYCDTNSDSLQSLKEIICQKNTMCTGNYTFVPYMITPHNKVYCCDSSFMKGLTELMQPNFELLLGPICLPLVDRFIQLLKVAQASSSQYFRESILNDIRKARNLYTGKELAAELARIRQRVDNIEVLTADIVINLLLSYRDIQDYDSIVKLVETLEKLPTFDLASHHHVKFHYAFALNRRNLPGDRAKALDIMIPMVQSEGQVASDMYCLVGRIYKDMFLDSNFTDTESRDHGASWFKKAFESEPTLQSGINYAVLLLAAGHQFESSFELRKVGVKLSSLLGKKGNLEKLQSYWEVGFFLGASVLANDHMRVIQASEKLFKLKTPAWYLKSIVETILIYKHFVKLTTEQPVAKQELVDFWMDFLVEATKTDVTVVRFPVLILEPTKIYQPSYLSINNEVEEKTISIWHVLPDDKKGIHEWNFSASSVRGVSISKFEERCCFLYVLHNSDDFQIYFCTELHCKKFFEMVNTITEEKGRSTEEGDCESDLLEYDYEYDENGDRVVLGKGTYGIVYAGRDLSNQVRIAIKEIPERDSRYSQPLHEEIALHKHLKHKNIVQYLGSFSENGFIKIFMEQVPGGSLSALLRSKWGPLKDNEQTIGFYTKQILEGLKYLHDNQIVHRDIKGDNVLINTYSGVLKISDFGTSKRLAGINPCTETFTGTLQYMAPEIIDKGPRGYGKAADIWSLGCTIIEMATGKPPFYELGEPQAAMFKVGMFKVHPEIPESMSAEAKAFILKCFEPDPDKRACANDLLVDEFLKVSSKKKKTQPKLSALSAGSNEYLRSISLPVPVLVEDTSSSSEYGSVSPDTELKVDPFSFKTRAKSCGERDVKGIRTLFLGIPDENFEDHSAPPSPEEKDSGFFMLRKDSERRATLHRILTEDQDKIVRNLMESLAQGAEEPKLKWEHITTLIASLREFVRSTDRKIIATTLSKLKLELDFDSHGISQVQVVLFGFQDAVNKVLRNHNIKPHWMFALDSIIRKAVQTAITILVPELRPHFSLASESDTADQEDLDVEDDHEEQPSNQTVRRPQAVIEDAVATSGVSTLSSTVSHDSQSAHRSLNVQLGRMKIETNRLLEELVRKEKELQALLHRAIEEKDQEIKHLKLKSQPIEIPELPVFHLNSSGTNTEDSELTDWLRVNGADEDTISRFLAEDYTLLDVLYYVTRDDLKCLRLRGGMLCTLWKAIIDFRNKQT

[3] = biological target: T2, Serine/threonine-protein kinase 3 (Homo sapiens) (UniProt Q13188); assay: Inhibition of MST2 conserved Lys1 (ESGQVVAIKQVPVESDLQEIIK) in human PBMC at 1 uM
T2 sequence (whole entry): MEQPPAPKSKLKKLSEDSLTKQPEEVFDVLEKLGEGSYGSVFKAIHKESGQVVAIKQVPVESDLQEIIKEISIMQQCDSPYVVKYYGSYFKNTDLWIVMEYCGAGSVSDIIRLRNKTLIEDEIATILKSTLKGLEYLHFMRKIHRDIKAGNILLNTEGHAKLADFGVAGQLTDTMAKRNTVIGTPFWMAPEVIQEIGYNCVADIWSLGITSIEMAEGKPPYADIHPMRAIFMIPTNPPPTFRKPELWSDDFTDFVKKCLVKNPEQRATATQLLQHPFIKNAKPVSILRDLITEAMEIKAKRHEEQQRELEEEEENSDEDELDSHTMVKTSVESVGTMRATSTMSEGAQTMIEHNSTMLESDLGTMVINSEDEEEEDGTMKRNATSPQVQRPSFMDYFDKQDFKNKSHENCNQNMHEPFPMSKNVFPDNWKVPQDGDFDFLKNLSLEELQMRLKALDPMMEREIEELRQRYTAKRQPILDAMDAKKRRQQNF

[4] = biological target: Serine/threonine-protein kinase 25 (Homo sapiens) (UniProt O00506); assay: Inhibition of YSK1 conserved Lys2 (DIKAANVLLSEQGDVK) in human PBMC at 1 uM
[5] = biological target: Serine/threonine-protein kinase Nek7 (Homo sapiens) (UniProt Q8TDX7); assay: Inhibition of NEK7 conserved Lys1 (AACLLDGVPVALKK) in human PBMC at 1 uM
Homo sapiens = species: Homo sapiens; assay: Inhibition of p70S6K conserved Lys2 (DLKPENIMLNHQGHVK) in human PBMC at 1 uM
[6] = biological target: Cyclin-dependent kinase 5 (Homo sapiens) (UniProt Q00535); assay: Inhibition of CDK5 labeling at conserved Lys1 (NRETHEIVALKR) in human PBMC at 0.1 uM
[7] = biological target: Phosphatidylinositol 3-kinase catalytic subunit type 3 (Homo sapiens) (UniProt Q8NEB9); assay: Inhibition of PIK3C3 ATP binding site (TEDGGKYPVIFKHGDDLR) in human PBMC at 0.1 uM
[8] = biological target: Myosin light chain kinase, smooth muscle (Homo sapiens) (UniProt Q15746); assay: Inhibition of smMLCK conserved Lys1 (VWAGKFFK) in human PBMC at 0.1 uM
[9] = biological target: T3, STE20-related kinase adapter protein alpha (Homo sapiens) (UniProt Q7RTN6); assay: Inhibition of STLK5 activation loop (YSVKVLPWLSPEVLQQNLQGYDAK) in human PBMC at 0.1 uM
T3 sequence (whole entry): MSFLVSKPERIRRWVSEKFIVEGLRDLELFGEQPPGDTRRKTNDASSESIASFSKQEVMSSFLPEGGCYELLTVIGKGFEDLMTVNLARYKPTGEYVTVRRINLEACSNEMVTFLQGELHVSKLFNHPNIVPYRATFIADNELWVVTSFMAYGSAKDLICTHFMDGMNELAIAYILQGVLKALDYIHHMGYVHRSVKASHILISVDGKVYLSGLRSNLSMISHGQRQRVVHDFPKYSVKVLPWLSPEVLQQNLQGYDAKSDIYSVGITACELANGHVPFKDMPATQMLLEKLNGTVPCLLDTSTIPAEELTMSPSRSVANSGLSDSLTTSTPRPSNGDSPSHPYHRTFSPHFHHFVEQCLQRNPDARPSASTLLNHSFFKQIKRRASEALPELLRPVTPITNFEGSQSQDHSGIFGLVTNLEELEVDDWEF

Chain of Phosphatidylinositol 3-kinase catalytic subunit type 3 (Homo sapiens) (Q8NEB9 whole entry): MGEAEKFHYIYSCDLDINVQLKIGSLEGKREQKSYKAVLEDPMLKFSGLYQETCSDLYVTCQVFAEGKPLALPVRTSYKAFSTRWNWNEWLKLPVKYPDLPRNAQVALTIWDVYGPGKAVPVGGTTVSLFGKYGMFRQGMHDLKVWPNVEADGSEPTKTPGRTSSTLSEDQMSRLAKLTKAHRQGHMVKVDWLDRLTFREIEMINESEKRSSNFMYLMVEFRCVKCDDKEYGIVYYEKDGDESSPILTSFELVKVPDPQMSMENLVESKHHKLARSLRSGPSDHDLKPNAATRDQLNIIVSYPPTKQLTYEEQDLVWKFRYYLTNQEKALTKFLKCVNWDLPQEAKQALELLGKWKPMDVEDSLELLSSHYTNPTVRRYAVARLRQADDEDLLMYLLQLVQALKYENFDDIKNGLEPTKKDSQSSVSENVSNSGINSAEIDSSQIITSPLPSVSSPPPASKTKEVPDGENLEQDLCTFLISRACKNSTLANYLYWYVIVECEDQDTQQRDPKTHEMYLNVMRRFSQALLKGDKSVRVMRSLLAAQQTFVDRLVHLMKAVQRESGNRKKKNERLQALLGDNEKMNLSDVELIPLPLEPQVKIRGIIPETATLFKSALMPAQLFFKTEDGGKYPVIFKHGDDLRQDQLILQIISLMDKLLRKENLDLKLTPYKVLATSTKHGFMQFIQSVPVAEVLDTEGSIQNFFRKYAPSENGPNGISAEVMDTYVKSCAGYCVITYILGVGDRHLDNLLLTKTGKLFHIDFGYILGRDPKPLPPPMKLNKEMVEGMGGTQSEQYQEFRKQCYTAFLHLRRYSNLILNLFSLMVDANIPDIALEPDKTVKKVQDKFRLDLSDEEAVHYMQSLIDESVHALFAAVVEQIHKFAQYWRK
Chain of Cyclin-dependent kinase 5 (Homo sapiens) (Q00535 whole entry, looked up): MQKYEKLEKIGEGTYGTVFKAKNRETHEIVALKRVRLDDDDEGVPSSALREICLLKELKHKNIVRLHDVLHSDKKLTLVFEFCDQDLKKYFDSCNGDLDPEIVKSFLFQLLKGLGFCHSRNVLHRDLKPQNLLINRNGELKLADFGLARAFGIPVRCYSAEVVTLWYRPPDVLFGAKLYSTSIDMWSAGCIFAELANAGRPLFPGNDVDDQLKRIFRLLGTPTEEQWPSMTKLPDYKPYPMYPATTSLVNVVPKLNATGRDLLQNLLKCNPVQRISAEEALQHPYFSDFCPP
Chain of Serine/threonine-protein kinase Nek7 (Homo sapiens) (Q8TDX7 whole entry, looked up): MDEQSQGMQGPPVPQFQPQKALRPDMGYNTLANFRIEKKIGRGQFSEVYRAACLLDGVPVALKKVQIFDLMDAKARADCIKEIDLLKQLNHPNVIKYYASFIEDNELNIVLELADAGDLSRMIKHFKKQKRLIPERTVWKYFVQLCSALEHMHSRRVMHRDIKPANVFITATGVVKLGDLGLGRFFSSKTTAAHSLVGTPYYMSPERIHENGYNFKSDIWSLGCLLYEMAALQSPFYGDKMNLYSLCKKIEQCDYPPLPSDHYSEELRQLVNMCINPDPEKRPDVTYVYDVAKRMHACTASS
Chain of Cyclin-dependent kinase 7 (Homo sapiens) (P50613 whole entry): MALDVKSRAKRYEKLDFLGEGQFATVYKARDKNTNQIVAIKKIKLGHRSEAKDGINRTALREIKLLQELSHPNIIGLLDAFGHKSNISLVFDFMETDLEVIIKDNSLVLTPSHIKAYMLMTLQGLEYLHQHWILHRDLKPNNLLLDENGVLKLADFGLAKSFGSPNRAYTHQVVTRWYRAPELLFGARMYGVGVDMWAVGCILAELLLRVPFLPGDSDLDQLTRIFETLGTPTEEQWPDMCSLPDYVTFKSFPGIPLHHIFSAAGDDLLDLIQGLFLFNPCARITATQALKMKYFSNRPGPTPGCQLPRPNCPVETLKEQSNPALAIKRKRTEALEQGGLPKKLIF
Chain of Myosin light chain kinase, smooth muscle (Homo sapiens) (Q15746 whole entry): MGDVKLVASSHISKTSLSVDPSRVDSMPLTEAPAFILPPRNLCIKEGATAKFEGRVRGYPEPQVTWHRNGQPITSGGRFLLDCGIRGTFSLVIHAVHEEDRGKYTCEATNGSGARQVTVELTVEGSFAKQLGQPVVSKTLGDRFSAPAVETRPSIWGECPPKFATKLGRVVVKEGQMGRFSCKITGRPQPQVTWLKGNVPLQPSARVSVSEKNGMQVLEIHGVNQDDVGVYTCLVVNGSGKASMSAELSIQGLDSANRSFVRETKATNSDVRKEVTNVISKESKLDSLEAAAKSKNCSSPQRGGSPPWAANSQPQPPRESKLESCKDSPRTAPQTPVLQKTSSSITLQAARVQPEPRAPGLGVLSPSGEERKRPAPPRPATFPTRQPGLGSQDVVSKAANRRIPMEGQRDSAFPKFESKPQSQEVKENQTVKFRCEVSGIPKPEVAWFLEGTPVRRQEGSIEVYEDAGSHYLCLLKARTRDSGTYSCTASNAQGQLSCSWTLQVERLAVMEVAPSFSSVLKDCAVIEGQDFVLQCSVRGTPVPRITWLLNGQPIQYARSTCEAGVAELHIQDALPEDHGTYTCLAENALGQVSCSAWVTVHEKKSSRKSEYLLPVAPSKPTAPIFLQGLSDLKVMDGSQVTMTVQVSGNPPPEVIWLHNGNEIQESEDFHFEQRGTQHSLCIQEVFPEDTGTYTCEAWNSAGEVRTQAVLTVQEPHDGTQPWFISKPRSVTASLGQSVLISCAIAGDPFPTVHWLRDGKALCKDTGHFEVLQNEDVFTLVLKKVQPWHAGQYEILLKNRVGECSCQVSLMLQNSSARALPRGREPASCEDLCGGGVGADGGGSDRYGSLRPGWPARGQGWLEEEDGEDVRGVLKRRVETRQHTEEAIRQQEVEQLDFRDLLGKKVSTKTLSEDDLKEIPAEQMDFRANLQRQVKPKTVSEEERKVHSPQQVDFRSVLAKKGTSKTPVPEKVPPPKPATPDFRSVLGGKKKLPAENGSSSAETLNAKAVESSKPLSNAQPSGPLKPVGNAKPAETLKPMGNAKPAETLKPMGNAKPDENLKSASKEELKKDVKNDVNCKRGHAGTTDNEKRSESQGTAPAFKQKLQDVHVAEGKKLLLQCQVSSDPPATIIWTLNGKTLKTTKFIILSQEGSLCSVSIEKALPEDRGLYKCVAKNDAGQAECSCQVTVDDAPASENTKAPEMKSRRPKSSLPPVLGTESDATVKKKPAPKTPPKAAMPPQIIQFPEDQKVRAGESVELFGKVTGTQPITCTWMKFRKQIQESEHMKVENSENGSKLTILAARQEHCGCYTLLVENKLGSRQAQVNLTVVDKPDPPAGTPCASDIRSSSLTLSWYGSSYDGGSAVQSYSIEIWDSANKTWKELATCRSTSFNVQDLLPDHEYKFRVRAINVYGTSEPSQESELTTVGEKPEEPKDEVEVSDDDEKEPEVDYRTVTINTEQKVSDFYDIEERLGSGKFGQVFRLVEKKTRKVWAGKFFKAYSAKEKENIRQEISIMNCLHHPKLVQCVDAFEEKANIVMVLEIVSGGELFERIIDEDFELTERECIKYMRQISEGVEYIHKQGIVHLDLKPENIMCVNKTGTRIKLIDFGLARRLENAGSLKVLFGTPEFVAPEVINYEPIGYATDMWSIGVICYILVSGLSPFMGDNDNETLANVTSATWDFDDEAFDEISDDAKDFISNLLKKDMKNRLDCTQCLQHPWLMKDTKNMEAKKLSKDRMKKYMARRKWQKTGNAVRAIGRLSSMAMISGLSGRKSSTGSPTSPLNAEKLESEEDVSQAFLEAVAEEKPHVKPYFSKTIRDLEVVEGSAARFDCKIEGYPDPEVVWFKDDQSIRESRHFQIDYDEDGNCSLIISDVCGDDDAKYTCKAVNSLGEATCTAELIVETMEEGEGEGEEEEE
Chain of Serine/threonine-protein kinase 25 (Homo sapiens) (O00506 whole entry, looked up): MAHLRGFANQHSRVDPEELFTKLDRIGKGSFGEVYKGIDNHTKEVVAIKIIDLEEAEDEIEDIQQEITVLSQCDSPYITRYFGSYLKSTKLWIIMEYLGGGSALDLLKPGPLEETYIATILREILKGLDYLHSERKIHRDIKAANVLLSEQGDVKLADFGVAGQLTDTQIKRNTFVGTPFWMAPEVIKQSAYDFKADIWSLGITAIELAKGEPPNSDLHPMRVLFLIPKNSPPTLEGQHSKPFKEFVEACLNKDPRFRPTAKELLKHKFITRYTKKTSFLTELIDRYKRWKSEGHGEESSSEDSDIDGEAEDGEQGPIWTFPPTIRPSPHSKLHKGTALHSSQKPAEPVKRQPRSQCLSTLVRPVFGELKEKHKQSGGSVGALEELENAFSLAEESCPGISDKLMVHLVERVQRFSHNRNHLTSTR

Q: Which results are given for `CC(C)n1cc(-c2cc(-c3ccc(CN4CCOCC4)cc3)cnc2N)nn1`?
A: inhibition [1]: -5.5%; inhibition [2]: 25.3%; inhibition [3]: -6%; inhibition [4]: 9.9%; inhibition [5]: 2.1%; inhibition (Homo sapiens): 6.9%; inhibition [6]: -1.1%; inhibition [7]: 14.1%; inhibition [8]: 29.6%; inhibition [9]: -9.8%

Source: ChEMBL document CHEMBL4043168, “The design and SAR of a novel series of 2-aminopyridine based LRRK2 inhibitors” (Bioorg Med Chem Lett, 2017)
